# Results: patent US12655090B2, “Cyclopropylamide compounds against parasites in fish” (Intervet Inc., priority 2021, dated 2026)
# Tested on: Copepodids (juvenile sea lice stage of Lepeophtheirus salmonis)
# Test: Juvenile sea lice contact assay
# Settings: test concentration 0.01 nM, approximately 24 hours continuous exposure in seawater, read-out: Sea lice inhibition (% of dead+damaged copepodids)
# Procedure: Copepodids (juvenile sea lice stage of Lepeophtheirus salmonis) were exposed to seawater spiked with declining concentrations of a test compound (dissolved in a DMSO sea-water mixture). Sea lice inhibition (% of dead+damaged copepodids) was assessed after approximately 24 hours of continuous exposure. The vitality of used parasites was confirmed in a negative (solvent) control group.
row,Structure (SMILES),inhibition at 10 pM [%]
1,O=C(NCCF)c1cc(NC(=O)C2C(c3ccc(F)c(Cl)c3)C2(Cl)Cl)ccc1Cl (racemic) [Compound 1536],100
2,O=C(NCCC(F)(F)F)c1cc(NC(=O)C2C(c3ccc(F)c(Cl)c3)C2(Cl)Cl)ccc1Cl (racemic) [Compound 1538],100
3,O=C(NCC(F)(F)F)c1cc(NC(=O)C2C(c3cc(F)c(F)c(F)c3)C2(Cl)Cl)ccc1Cl (racemic) [Compound 1551],100
4,O=C(NCCF)c1cc(NC(=O)C2C(c3ccc(F)c(Cl)c3)C2(Cl)Cl)ccc1F (racemic) [Compound 1558],100
5,O=C(NCC(F)(F)F)c1cc(NC(=O)C2C(c3ccc(F)c(Cl)c3)C2(Cl)Cl)ccc1F (racemic) [Compound 1559],100
6,O=C(NCCCCl)c1cc(NC(=O)C2C(c3ccc(F)c(Cl)c3)C2(Cl)Cl)ccc1F (racemic) [Compound 1563],100
7,O=C(NCC(F)(F)F)c1cc(NC(=O)C2C(c3ccc(F)c(Cl)c3)C2(Cl)Cl)cc(F)c1Cl (racemic) [Compound 1565],100

# Same assay, conditions: test concentration 1 nM, approximately 24 hours continuous exposure in seawater, read-out: Sea lice inhibition (% of dead+damaged copepodids)
row,Structure (SMILES),inhibition at 0.001 µM [%]
1,CC1(NC(=O)c2cc(NC(=O)C3C(c4cc(Cl)cc(Cl)c4)C3(Cl)Cl)ccc2Cl)CC1 (racemic) [Compound 1523],80
2,Cc1c(F)cc(NC(=O)C2C(c3ccc(F)c(Cl)c3)C2(Cl)Cl)cc1C(=O)NCC(F)(F)F (racemic) [Compound 1567],100
3,O=C(NCCCCl)c1cc(NC(=O)C2C(c3ccc(F)c(Cl)c3)C2(Cl)Cl)cc(F)c1F (racemic) [Compound 1574],80
4,N#CC1(NC(=O)c2cc(NC(=O)C3C(c4ccc(F)c(Cl)c4)C3(Cl)Cl)cc(F)c2F)CC1 (stereo not drawn) [Compound 1589],80
5,C#CCNC(=O)c1cc(NC(=O)C2C(c3cc(C(F)(F)F)cc(C(F)(F)F)c3)C2(Cl)Cl)ccc1Cl (stereo not drawn) [Compound 1614],80

# Same assay, conditions: test concentration 10 nM, approximately 24 hours continuous exposure in seawater, read-out: Sea lice inhibition (% of dead+damaged copepodids)
row,Structure (SMILES),inhibition at 0.01 µM [%]
1,O=C(NCC(F)(F)F)c1cc(NC(=O)C2C(c3cc(Cl)cc(Cl)c3)C2(Cl)Cl)ccc1Cl (racemic) [Compound 1500],≥ 80
2,N#CC1(NC(=O)c2cc(NC(=O)C3C(c4ccc(Cl)c(Cl)c4)C3(Cl)Cl)ccc2Cl)CC1 (racemic) [Compound 1501],≥ 80
3,CC(C)CNC(=O)c1cc(NC(=O)C2C(c3cc(Cl)cc(Cl)c3)C2(Cl)Cl)ccc1Cl (racemic) [Compound 1502],100
4,O=C(NC1CC(F)(F)C1)c1cc(NC(=O)C2C(c3cccc(C(F)(F)F)c3)C2(Cl)Cl)ccc1Cl (racemic) [Compound 1508],100
5,CCNC(=O)c1cc(NC(=O)C2C(c3cc(Cl)cc(Cl)c3)C2(Cl)Cl)ccc1Cl (racemic) [Compound 1509],100
6,O=C(NC1COC1)c1cc(NC(=O)C2C(c3cc(Cl)cc(Cl)c3)C2(Cl)Cl)ccc1Cl (racemic) [Compound 1510],100
7,Cc1cc(Cl)cc(C2C(C(=O)Nc3ccc(Cl)c(C(=O)NC4CC(F)(F)C4)c3)C2(Cl)Cl)c1 (racemic) [Compound 1513],100
8,N#CC1(NC(=O)c2cc(NC(=O)C3C(c4cc(Cl)cc(Cl)c4)C3(Cl)Cl)ccc2Cl)CC1 (racemic) [Compound 1515],100
9,O=C(NC1CCOC1=O)c1cc(NC(=O)C2C(c3cc(Cl)cc(Cl)c3)C2(Cl)Cl)ccc1Cl (racemic) [Compound 1526],100
10,O=C(NCC(F)(F)F)c1cc(NC(=O)C2C(c3ccc(F)c(Cl)c3)C2(Cl)Cl)ccc1Cl (racemic) [Compound 1537],100
11,O=C(NCCF)c1cc(NC(=O)C2C(c3cc(Cl)cc(Cl)c3)C2(Cl)Cl)cc(Cl)c1Cl (racemic) [Compound 1539],100
12,O=C(NCCC(F)(F)F)c1cc(NC(=O)C2C(c3cc(Cl)cc(Cl)c3)C2(Cl)Cl)cc(Cl)c1Cl (racemic) [Compound 1552],≥ 80
13,CCNC(=O)c1cc(NC(=O)C2C(c3cc(Cl)cc(Cl)c3)C2(Cl)Cl)cc(Cl)c1Cl (racemic) [Compound 1553],100
14,O=C(NCC(F)(F)F)c1cc(NC(=O)C2C(c3ccc(F)c(Cl)c3)C2(Cl)Cl)cc(F)c1F (racemic) [Compound 1554],≥ 80
15,Cc1cc(NC(=O)C2C(c3ccc(F)c(Cl)c3)C2(Cl)Cl)cc(C(=O)NCCCCl)c1Cl (racemic) [Compound 1557],100
16,Cc1c(Cl)cc(NC(=O)C2C(c3ccc(F)c(Cl)c3)C2(Cl)Cl)cc1C(=O)NCC(F)(F)F (racemic) [Compound 1561],100
17,Cc1c(Cl)cc(NC(=O)C2C(c3ccc(F)c(Cl)c3)C2(Cl)Cl)cc1C(=O)NCCCCl (racemic) [Compound 1566],100
18,O=C(NCC(F)(F)F)c1cc(NC(=O)C2C(c3ccc(F)c(Cl)c3)C2(Cl)Cl)cc(Cl)c1F (racemic) [Compound 1570],≥ 80
19,O=C(NCCC(F)(F)F)c1c(F)ccc(NC(=O)C2C(c3ccc(F)c(Cl)c3)C2(Cl)Cl)c1F (racemic) [Compound 1573],100
20,CC(NC(=O)c1cc(NC(=O)C2C(c3cc(F)c(F)c(F)c3)C2(Cl)Cl)ccc1Cl)C(F)(F)F (racemic) [Compound 1602],100
21,O=C(NC1CC(F)(F)C1)c1cc(NC(=O)C2C(c3cc(Cl)cc(Cl)c3)C2(Cl)Cl)ccc1Cl (stereo not drawn) [Compound 1531],100
22,CC(C)(NC(=O)c1cc(NC(=O)C2C(c3cc(F)c(F)c(F)c3)C2(Cl)Cl)ccc1Cl)C(F)(F)F (stereo not drawn) [Compound 1603],≥ 80
23,O=C(NC1(C(F)(F)F)CC1)c1cc(NC(=O)C2C(c3cc(F)c(F)c(F)c3)C2(Cl)Cl)ccc1Cl (stereo not drawn) [Compound 1604],100
24,N#CC1(NC(=O)c2cc(NC(=O)C3C(c4cc(C(F)(F)F)cc(C(F)(F)F)c4)C3(Cl)Cl)ccc2Cl)CC1 (stereo not drawn) [Compound 1612],100
25,O=C(NCC(F)(F)F)c1cc(NC(=O)C2C(c3cc(C(F)(F)F)cc(C(F)(F)F)c3)C2(Cl)Cl)ccc1Cl (stereo not drawn) [Compound 1613],100
26,N#CC1(NC(=O)c2cc(NC(=O)C3C(c4cc(C(F)(F)F)cc(C(F)(F)F)c4)C3(Cl)Cl)cc(F)c2F)CC1 (stereo not drawn) [Compound 1615],100

# Same assay, conditions: test concentration 100 nM, approximately 24 hours continuous exposure in seawater, read-out: Sea lice inhibition (% of dead+damaged copepodids)
row,Structure (SMILES),inhibition at 0.1 µM [%]
1,Cc1cc(C2C(C(=O)Nc3ccc(Cl)c(C(=O)NC4(C#N)CC4)c3)C2(Cl)Cl)cc(Cl)c1Cl (racemic) [Compound 1514],100
2,N#Cc1cc(Cl)cc(C2C(C(=O)Nc3ccc(Cl)c(C(=O)NC4(C#N)CC4)c3)C2(Cl)Cl)c1 (racemic) [Compound 1532],100
3,N#CC1(NC(=O)c2cc(NC(=O)C3C(c4cc(F)c(Br)c(F)c4)C3(Cl)Cl)ccc2Cl)CC1 (racemic) [Compound 1544],100
4,N#CC1(NC(=O)c2cc(NC(=O)C3C(c4cc(Cl)cc(C(F)F)c4)C3(Cl)Cl)ccc2Cl)CC1 (racemic) [Compound 1545],100
5,N#CC1(NC(=O)c2cc(NC(=O)C3C(c4ccc(Cl)c(C(F)F)c4)C3(Cl)Cl)ccc2Cl)CC1 (racemic) [Compound 1546],100
6,N#CC1(NC(=O)c2cc(NC(=O)C3C(c4cc(F)cc(C(F)F)c4)C3(Cl)Cl)ccc2Cl)CC1 (racemic) [Compound 1547],100
7,N#CC1(NC(=O)c2cc(NC(=O)C3C(c4cccc(C(F)F)c4)C3(Cl)Cl)ccc2Cl)CC1 (racemic) [Compound 1549],100
8,O=C(NCC(F)(F)F)c1cc(NC(=O)C2C(c3ccc(F)c(F)c3)C2(Cl)Cl)ccc1Cl (stereo not drawn) [Compound 1591],100
9,O=C(NC1CC(F)(F)C1)c1cc(NC(=O)C2C(c3cccc(C(F)(F)F)c3)C2(Cl)Cl)ccc1Cl (stereo not drawn) [Compound 1611],100
10,CC1(NC(=O)c2cc(NC(=O)C3C(c4cc(Cl)cc(Cl)c4)C3(Cl)Cl)cc(F)c2F)CC1 (stereo not drawn) [Compound 1616],100
11,O=C(NC1(C(F)(F)F)CC1)c1cc(NC(=O)C2C(c3cc(Cl)cc(Cl)c3)C2(Cl)Cl)ccc1F (stereo not drawn) [Compound 1627],≥ 80
12,C#CCNC(=O)c1cc(NC(=O)C2C(c3cc(Cl)cc(Cl)c3)C2(Cl)Cl)cc(F)c1F (stereo not drawn) [Compound 1629],100
13,C#CCNC(=O)c1cc(NC(=O)C2C(c3cc(Cl)cc(Cl)c3)C2(Cl)Cl)ccc1F (stereo not drawn) [Compound 1631],100

# Tested on: Mobile stages of sea lice (pre-adults, adults of Lepeophtheirus salmonis)
# Test: Adult sea lice contact assay
# Settings: assessed after approximately 1 and 24 hours of continuous exposure, read-out: EC50 (sea lice inhibition, dead+damaged sea lice)
# Procedure: Mobile stages of sea lice (i.e., pre-adults, adults of Lepeophtheirus salmonis) were exposed to seawater spiked with declining concentrations of a test compound (dissolved in a PEG sea-water mixture). Sea lice inhibition (% of dead+damaged sea lice) was assessed after approximately 1 and 24 hours of continuous exposure in comparison to a negative (solvent) control group.
row,Structure (SMILES),EC50 [nM]
1,O=C(NC1CC(F)(F)C1)c1cc(NC(=O)C2C(c3cccc(C(F)(F)F)c3)C2(Cl)Cl)ccc1Cl (racemic) [Compound 1508],1 to 10
2,Cc1cc(C2C(C(=O)Nc3ccc(Cl)c(C(=O)NC4(C#N)CC4)c3)C2(Cl)Cl)cc(Cl)c1Cl (racemic) [Compound 1514],10 to 25
3,N#Cc1cc(Cl)cc(C2C(C(=O)Nc3ccc(Cl)c(C(=O)NC4(C#N)CC4)c3)C2(Cl)Cl)c1 (racemic) [Compound 1532],10 to 25
4,N#CC1(NC(=O)c2cc(NC(=O)C3C(c4cc(Cl)cc(C(F)F)c4)C3(Cl)Cl)ccc2Cl)CC1 (racemic) [Compound 1545],10 to 25
5,N#CC1(NC(=O)c2cc(NC(=O)C3C(c4ccc(Cl)c(C(F)F)c4)C3(Cl)Cl)ccc2Cl)CC1 (racemic) [Compound 1546],10 to 25
6,N#CC1(NC(=O)c2cc(NC(=O)C3C(c4cc(F)cc(C(F)F)c4)C3(Cl)Cl)ccc2Cl)CC1 (racemic) [Compound 1547],1 to 10
7,N#CC1(NC(=O)c2cc(NC(=O)C3C(c4ccc(C(F)F)c(Cl)c4)C3(Cl)Cl)ccc2Cl)CC1 (racemic) [Compound 1548],10 to 25
8,CC(NC(=O)c1cc(NC(=O)C2C(c3cc(F)c(F)c(F)c3)C2(Cl)Cl)ccc1Cl)C(F)(F)F (racemic) [Compound 1602],10 to 25
9,N#CC1(NC(=O)c2cc(NC(=O)C3C(c4ccc(F)c(Cl)c4)C3(Cl)Cl)cc(F)c2F)CC1 (stereo not drawn) [Compound 1589],≤ 1
10,CC(C)(NC(=O)c1cc(NC(=O)C2C(c3cc(F)c(F)c(F)c3)C2(Cl)Cl)ccc1Cl)C(F)(F)F (stereo not drawn) [Compound 1603],10 to 25
11,O=C(NC1(C(F)(F)F)CC1)c1cc(NC(=O)C2C(c3cc(F)c(F)c(F)c3)C2(Cl)Cl)ccc1Cl (stereo not drawn) [Compound 1604],10 to 25
12,N#CC1(NC(=O)c2cc(NC(=O)C3C(c4cc(C(F)(F)F)cc(C(F)(F)F)c4)C3(Cl)Cl)ccc2Cl)CC1 (stereo not drawn) [Compound 1612],10 to 25
13,O=C(NCC(F)(F)F)c1cc(NC(=O)C2C(c3cc(C(F)(F)F)cc(C(F)(F)F)c3)C2(Cl)Cl)ccc1Cl (stereo not drawn) [Compound 1613],≤ 1
14,C#CCNC(=O)c1cc(NC(=O)C2C(c3cc(C(F)(F)F)cc(C(F)(F)F)c3)C2(Cl)Cl)ccc1Cl (stereo not drawn) [Compound 1614],≤ 1
15,N#CC1(NC(=O)c2cc(NC(=O)C3C(c4cc(C(F)(F)F)cc(C(F)(F)F)c4)C3(Cl)Cl)cc(F)c2F)CC1 (stereo not drawn) [Compound 1615],1 to 10
